Measurements: ChEMBL document CHEMBL1153065, “Synthesis, radiolabeling and preliminary in vivo evaluation of [18F]FE-PE2I, a new probe for the dopamine transporter” (Bioorg Med Chem Lett, 2009)

Experiments:
[1] = molecular target: Sodium-dependent dopamine transporter (Rattus norvegicus, UniProt P23977); experiment: Displacement of [125I]PE2I from rat DAT
Brain = experiment: Drug uptake in cynomolgus monkey brain at 59 MBq after 13 mins; type: ADME, tissue-based, Macaca fascicularis; settings: in vivo
[2] = Ratio of drug uptake in cerebellum to putamen in cynomolgus monkey at 59 MBq after 105 mins; type: ADME, Macaca fascicularis; settings: in vivo, 1.75 h
[3] = Ratio of drug uptake in cerebellum to putamen in cynomolgus monkey by GBR-12909 displacement assay; design: species or system Macaca fascicularis; settings: in vivo
[4] = Ratio of drug uptake in cerebellum to caudate in cynomolgus monkey at 59 MBq after 105 mins; type: ADME, Macaca fascicularis; settings: in vivo, 1.75 h
[5] = Ratio of drug uptake in cerebellum to caudate in cynomolgus monkey by GBR-12909 displacement assay; design: species or system Macaca fascicularis; settings: in vivo
Plasma = experiment: Metabolic stability in cynomolgus monkey venous plasma assessed as compound recovery by radio-HPLC; type: ADME, cell-free, Macaca fascicularis

Chain of Sodium-dependent dopamine transporter (P23977 whole entry): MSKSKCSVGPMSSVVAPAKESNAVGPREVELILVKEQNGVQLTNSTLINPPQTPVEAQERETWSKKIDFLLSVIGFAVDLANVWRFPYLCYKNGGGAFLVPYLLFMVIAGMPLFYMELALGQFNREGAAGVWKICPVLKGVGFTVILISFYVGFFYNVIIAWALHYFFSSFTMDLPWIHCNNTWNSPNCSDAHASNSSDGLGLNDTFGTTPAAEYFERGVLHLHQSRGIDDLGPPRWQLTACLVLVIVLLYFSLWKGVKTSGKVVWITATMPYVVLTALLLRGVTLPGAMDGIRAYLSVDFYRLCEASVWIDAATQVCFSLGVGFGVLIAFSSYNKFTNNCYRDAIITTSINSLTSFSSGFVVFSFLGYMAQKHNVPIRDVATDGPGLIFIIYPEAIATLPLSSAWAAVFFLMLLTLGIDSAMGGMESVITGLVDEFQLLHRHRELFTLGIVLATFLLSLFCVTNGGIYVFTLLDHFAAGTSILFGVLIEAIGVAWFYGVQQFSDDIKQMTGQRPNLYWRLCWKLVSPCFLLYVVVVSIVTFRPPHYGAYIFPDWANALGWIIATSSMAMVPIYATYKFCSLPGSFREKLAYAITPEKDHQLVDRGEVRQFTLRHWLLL

SMILES | Ki [1] | SUV (Brain) | Ratio [2] | Ratio [3] | Ratio [4] | Ratio [5] | Stability (Plasma)
COC(=O)[C@H]1[C@@H](c2ccc(C)cc2)C[C@@H]2CC[C@H]1N2C/C=C/I | 16 nM | – | – | – | – | – | –
Cc1ccc([C@H]2C[C@@H]3CC[C@H]([C@H]2C(=O)OCC[18F])N3C/C=C/I)cc1 | – | 540% | 7.9 | 1.3 | 7.5 | 1.4 | 91%
Cc1ccc([C@H]2C[C@@H]3CC[C@H]([C@H]2C(=O)OCCF)N3C/C=C/I)cc1 | 12 nM | – | – | – | – | – | –
